Source: article PMC8184619 (Molecular immunology, 2021)

Tests used:
Format in all cases: cell-based
[1] = test system: SILv44 TCR-transduced CD8+ Jurkat T cells
[2] = test system: R6C12 TCR-transduced CD8+ Jurkat T cells
[3] = test system: T4H2 TCR-transduced CD8+ Jurkat T cells

EC50 [1]: 1400 ± 300 nM
EC50 [2]: 11000 ± 3000 nM
EC50 [3]: 300 ± 100 nM
SMILES: CC[C@H](C)[C@H](N)C(=O)N[C@@H](CC(C)C)C(=O)N[C@@H](CC(=O)O)C(=O)N[C@@H](CCC(N)=O)C(=O)N[C@H](C(=O)N1CCC[C@H]1C(=O)N[C@@H](Cc1ccccc1)C(=O)N[C@@H](CO)C(=O)N[C@H](C(=O)O)C(C)C)C(C)C [T2Leu]
